Source: PMC11407758, “Integrated stress response (ISR) activation and apoptosis through HRI kinase by PG3 and other p53 pathway-restoring cancer therapeutics” (Oncotarget, 2024)
Like-named read-outs stand apart in the source and are kept apart here. Peptide text beside a SMILES is read from it. * marks the point of attachment. Cbz = O=C(OCc1ccccc1)*; CH2F = FC*

Key:
DR5 = assay: Western blot, DR5 induction; assay type: cell-based, human
Protocol: (§1) Figure 4 Activation of ATF4 and up-regulation of typical p53 target genes. (A–E) Western blot analysis of p53 protein levels and upregulation of ATF4, PUMA, DR5 and p21. Cells were treated for 24 h with indicated compounds, concentrations and cell lines. Abbreviations: S.E.: Short exposure; L.E.: Long exposure.
(§2) After treatment, protein lysates were collected for Western blot analysis. A total of 15 μg of protein was used for SDS-PAGE. After primary and secondary antibody incubations, the signal was detected by a chemiluminescence detection kit, imaged by Syngene (Imgen Technologies). Antibodies for NAG-1 (GDF15) and P53 were from Santa Cruz Biotechnology; for caspase 8, cleaved caspase 8, caspase 9, caspase 3, cleavage PARP, eIF2α, p-eIF2α (Ser51), CHOP, ATF4, DR5, and PUMA were from Cell Signaling Technology. Noxa and p21 were from Calbiochem. Ran was from BD Biosciences.

p53 protein = assay: Western blot, p53 protein levels; assay type: cell-based, human
Protocol: Cells were treated for 24 h with indicated compounds, concentrations and cell lines. Abbreviations: S.E.: Short exposure; L.E.: Long exposure.
as §2

[1] = tested on: MRC5 (human lung fibroblast cell with wild-type p53); assay: Cell viability assay (CellTiterGlo), MRC5 normal cells; assay type: cell-based; details: 72 h, read-out: IC50 values, MRC5 (WT)
Protocol: (§3) Figure 1 PG3 inhibits cell proliferation and growth in a p53-indepent manner. (A–E) Cell viability assay, dose response curves and IC50 value measurements in a panel of cancer cell lines and normal cells. Cells were treated with different concentrations of PG3, PG3-Oc (Oc), obatoclax (Ob), prodigiosin (P) or DMSO for 72 h. Luciferase activity was imaged by the IVIS Imaging System after treatment. Cell viability data were normalized to those of DMSO treatment control in each cell line and data analyses were performed using PRISM4 software. IC50 data are expressed as the mean ±SD (normal; n = 3).
as §3, with “2 p53-dependent inhibition of” for “1 PG3 inhibits”, “is only observed at specific concentrations. (A–J)” for “and growth in a p53-indepent manner. (A–E)”, “ZMC1, CP-313908, APR-246, Ellipticine, Nutalin-3a” for “PG3, PG3-Oc (Oc), obatoclax (Ob), prodigiosin (P)”
(§4) Cells were seeded in 96-well plates (6 × 10^3 cells/well). Cells were treated with different concentrations of compounds or dimethyl sulfoxide (DMSO) as a control for 72 hours. The cell viability was assessed by CellTiterGlo bioluminescent cell viability assay (Promega), following the manufacturer’s protocol. Bioluminescence imaging was measured using the IVIS imager. The percentage of cell viability (mean ± SEM) at each dose was calculated against the respective DMSO control. The IC50 values were determined from the sigmoidal dose-response curves using GraphPad Prism.

HCT116 (R175H) = assay: Cell viability assay (CellTiterGlo), HCT116 R175H; assay type: cell-based, human
Protocol: as §3
as §3, with “2 p53-dependent inhibition of” for “1 PG3 inhibits”, “is only observed at specific concentrations. (A–J)” for “and growth in a p53-indepent manner. (A–E)”, “ZMC1, CP-313908, APR-246, Ellipticine, Nutalin-3a” for “PG3, PG3-Oc (Oc), obatoclax (Ob), prodigiosin (P)”
as §4

[2] = tested on: HFF-1 (human foreskin fibroblast cell with wild-type p53); assay: Cell viability assay (CellTiterGlo), HFF-1 normal cells; assay type: cell-based; details: 72 h, CellTiterGlo, normal cells; read-out: IC50 values, HFF-l (WT)
Protocol: as §3
as §3, with “2 p53-dependent inhibition of” for “1 PG3 inhibits”, “is only observed at specific concentrations. (A–J)” for “and growth in a p53-indepent manner. (A–E)”, “ZMC1, CP-313908, APR-246, Ellipticine, Nutalin-3a” for “PG3, PG3-Oc (Oc), obatoclax (Ob), prodigiosin (P)”
as §4

[3] = tested on: SW480 cells carrying a p53-responsive luciferase reporter; assay: p53-responsive reporter assay; assay type: cell-based, human; details: 30 μM, 15 hour time point
Protocol: SW480 cells carrying a p53-responsive luciferase reporter were used for assay of functional restoration of mutant p53. Cells were seeded in 96-well plates (5 × 10^4 cells/well) and were treated with compounds indicated for 6 and 15 h, respectively. Then, D-luciferin was added to each well with final concentration 100 μg/mL, and cells were imaged by using an IVIS Imaging System to detect luciferase activity.
p53-mutant SW480 human colon cancer cells, stably expressing a p53-responsive luciferase reporter, were used to assay functional restoration p53 pathway-dependent transcription in mutant p53-expressing tumor cells. Cells were seeded in 96-well plates (5 × 10^4 cells/well) and were treated with small-molecule compounds for 6 and 15 h, respectively. Then, D-luciferin was added to each well at a final concentration of 100 μg/mL, and cells were imaged by using an IVIS Imaging System (Xenogen) to detect luciferase activity.

ATF4 = assay: Western blot, ATF4 induction; assay type: cell-based, human; details: 24 h
Protocol: as §1, §2

PUMA = assay: Western blot, PUMA induction; assay type: cell-based, human
Protocol: as §1, §2

p21 = assay: Western blot, p21 induction; assay type: cell-based, human
Protocol: as §1, §2

HT29 (R273H) = assay: Cell viability assay (CellTiterGlo), HT29; assay type: cell-based, human
Protocol: as §3
as §3, with “2 p53-dependent inhibition of” for “1 PG3 inhibits”, “is only observed at specific concentrations. (A–J)” for “and growth in a p53-indepent manner. (A–E)”, “ZMC1, CP-313908, APR-246, Ellipticine, Nutalin-3a” for “PG3, PG3-Oc (Oc), obatoclax (Ob), prodigiosin (P)”
as §4

[4] = tested on: GCN2, PKR, eIF2α, ATF4, CHOP in HT29 cells; assay: Western blot, ISR kinases / eIF2α / ATF4 / CHOP; assay type: cell-based, human
Protocol: Figure 7 PG3 induces upregulation of ATF4 through ISR via HRI. (A) HT29 cells were treated with PG3, GSK2606414, TG and ONC201 respectively, or co-treatment with PG3/GSK2606414, PG3/TG, and PG3/ONC201 for 15 h. (B) MEF, MEF^PERK−/− and MEF^GCN2−/− cells were treated with PG3 and ONC201 for 16 hours. (C) HT29 cells were transfected with siControl, siPKR, siHRI and siPKR/siHRI for 24 hours and then treated with PG3 for 16 hours. (D) HCT116 p53^−/− cells were transfected with siControl and siHRI for 24 hours and then treated with PG3 for 16 hours. (E) HCT116 p53^−/− cells were treated with PG3 and ONC201 for indicated times. (F) PANC1-sgCtrl, -sgHRI and -sgPKR cell lines were treated with PG3 and imipridones (ONC201, ONC206 and ONC212) for 16 hours. Western blot was performed using indicated antibodies. (G) Proposed model of PG3-induced cell apoptosis through HRI/ATF4/PUMA axis. Abbreviation: L.E.: Long exposure.
as §2
(§5) Supplementary Figure 2: ROS and NO are not responsible for PG3-induced HRI activation. (A, B) cells were pre-treated
(§6) with ZnPP, L-NMMA, SA and NAC for 2 hours respectively, and then ONC201 or PG3 was added to the medium for 24 hour treatment.
(§7) Western blot was performed using indicated antibodies.
(§8) (1 picture or pasted object on this page, not shown here)

HRI = tested on: HRI; set-up: method as in PMID 22827572; details: cited from earlier work
ALAS1, UROD = assay: Western blot, heme biosynthesis enzymes; assay type: cell-based, human
Protocol: Figure 8 Inhibition of heme biosynthesis leads to upregulation of ATF4. (A) HT29 cells were treated with SA and ONC201 for 20 hours. Western blotting was performed using the indicated antibodies. (B) HT29 cells were transfected with siCtrl, siHRI, siClpX, siALAS1, siClpX/siALAS1 and siClpX/siALAS1/siHRI for 48 hours. (C) HT29 cells were transfected with siCtrl, siLonP1, siClpP for 24 or 48 hours respectively, and then treated with ONC201 for 24 hours. (D) Proposed model of ONC201-induced cell apoptosis through ClpP/ALAS1/HRI/ATF4 axis. (E, F) Silencing of ClpP in HCT116 p53^−/− and MDA-MB-468 cells and then treated with PG3, PG3-Oc and ONC201. Western blot was performed using indicated antibodies.
as §2, §5, §6, §7, §8

[5] = tested on: HCT116 (wild-type), SW480 (R273H, P309S), and DLD1 (S241F); assay: Cell viability assay in colorectal cancer cell lines (Figure 1E); assay type: cell-based, human; details: 72 h
Protocol: as §3, §4

[6] = tested on: cleaved caspase-8, -3, cleaved PARP and PUMA in HT29, SW480 and HCT116 p53−/− cells; assay: Western blot, apoptosis markers in PG3-treated cells; assay type: cell-based, human; details: co-treatment with PG3; HT29, SW480, HCT116 p53–/–
Protocol: Figure 5 PG3 induces apoptosis in p53-null and p53-mutant cancer cell lines. (A–E) Dose-response and time-course analysis of cleavage of caspase-8, -3, cleaved PARP and PUMA in PG3-treated HT29, SW480 and HCT116 p53^−/− cells by western blot using the indicated antibodies. (F–H) Flowcytometry analysis of cell death. (I) HT29 and HT29-PUMA^−/− and (J) SW480 cells were co-treated with PG3 and pan-caspase inhibitor Z-VAD-fmk for 48 h. (K) HCT116 p53^−/− cell were co-treated with PG3 and Z-VAD-fmk for 24 hours.
as §2

COc1ccc(/C=C/c2nc(NCCCN(C)C)c3ccccc3n2)cc1 [CP-31398]
upregulation of DR5 (DR5; HCT116 (p53 wild-type), 24 h): does not upregulate DR5
upregulation of DR5 (DR5; HCT116 p53-R175H, 24 h): does not upregulate DR5
upregulation of DR5 (DR5; HCT116 p53–/–, 24 h): does not upregulate DR5
upregulation of DR5 (DR5; HT29, 24 h): mildly upregulates DR5
upregulation of DR5 (DR5; TOV-112D, 24 h): upregulates DR5 in a comparable manner to PG3 and PG3-Oc
wild-type p53 protein level (p53 protein; HCT116, 24 h): marginal stabilization
endogenous mutant p53 R273H protein level (p53 protein; HT29, 24 h): stabilizes
endogenous mutant p53 R175H protein level (p53 protein; TOV-112D, 24 h): marginally destabilizes
exogenous mutant p53 R175H protein level (p53 protein; engineered HCT116-R175H cells, 24 h): no effects
IC50 [1]: 5.92 µM
IC50 (HCT116 (R175H); 72 h, CellTiterGlo): 9.58 µM
selective inhibition among HCT116 isogenic cell lines (HCT116 (R175H); HCT116-R175H compared to HCT116 (WT) and HCT116 p53–/–, 10 μM): selective inhibition
IC50 [2]: 7.92 µM
p53-responsive reporter activity [3]: able to activate the reporter
upregulation of ATF4 (ATF4; HT29 and TOV-112D, compared to PG3 and PG3-Oc): more potently induces upregulation of ATF4
upregulation of ATF4 (ATF4; three isogenic HCT116 cell lines): does not upregulate ATF4
upregulation of PUMA (PUMA; HCT116 (p53 wild-type), 24 h): induces PUMA expression
upregulation of PUMA (PUMA; HCT116 p53-R175H, 24 h): barely
upregulation of PUMA (PUMA; HCT116 p53–/–, 24 h): barely
upregulation of PUMA (PUMA; HT29, 24 h): induces PUMA expression
upregulation of PUMA (PUMA; TOV-112D, 24 h): barely
upregulation of p21 (p21; HCT116 (p53 wild-type), 24 h): significantly
upregulation of p21 (p21; HCT116 p53-R175H, 24 h): barely
upregulation of p21 (p21; HCT116 p53–/–, 24 h): barely
upregulation of p21 (p21; HT29, 24 h): significantly
upregulation of p21 (p21; TOV-112D, 24 h): upregulates p21 strongly
IC50 (HT29 (R273H); 72 h, CellTiterGlo): 0.647 µM
inhibition of cell viability (HT29 (R273H); HT29, 0.04 μM): potently inhibited
fold more potency in HT29 than in HFF-1 (HT29 (R273H); HT29 vs HFF-1): 12.2 fold
fold more potency in HT29 than in MRC5 (HT29 (R273H); HT29 vs MRC5): 9.1 fold

Cn1cc(-c2ccc3c(c2)CCN3C(=O)Cc2cccc(C(F)(F)F)c2)c2c(N)ncnc21 [GSK2606414, 7-methyl-5-(1-{[3-(trifluoromethyl)phenyl]acetyl}-2,3-dihydro-1H-indol-5-yl)-7H-pyrrolo[2,3-d]pyrimidin-4-amine]
effect on ONC201-induced upregulation of ATF4 and CHOP ([4]; HT29, co-treatment with ONC201): significantly attenuates
effect on PG3-induced eIF2α phosphorylation, ATF4 and CHOP upregulation ([4]; HT29, co-treatment with PG3, 15 h): does not block
effect on TG-induced upregulation of ATF4 and CHOP ([4]; HT29, co-treatment with thapsigargin): abolishes
IC50 (HRI): 0.42 µM

Cc1ccccc1CN1C(=O)C2=C(CCN(Cc3ccccc3)C2)N2CCN=C12 [ONC201]
phosphorylation of GCN2 and PKR [4]: does not increase phosphorylation
ALAS1 protein level (ALAS1, UROD): potent downregulation and inhibition of ALAS1
UROD protein levels (ALAS1, UROD): do not have any effects

COC1=CC(c2cc3ccccc3[nH]2)=N/C1=C\c1[nH]c(C)cc1C [Obatoclax]
potency compared among PG3-Oc, prodigiosin and Obatoclax [5]: same potency

CC(=O)CC(=O)CCC(=O)O [SA, Succinylacetone]
eIF2α phosphorylation, ATF4 and CHOP ([4]; HT29, 20 hours, comparable to ONC201): eIF2α phosphorylation and upregulation of ATF4 and CHOP
ALAS1 protein level (ALAS1, UROD; HT29, 20 hours): upregulation of ALAS1

COC(=O)C[C@H](NC(=O)[C@H](C)NC(=O)[C@@H](NC(=O)OCc1ccccc1)C(C)C)C(=O)CF [Z-VAD-FMK] (Cbz-Val-Ala-Asp(OMe)-CH2F)
effect on PG3-induced cleavage of PARP, caspase-8 and -3 [6]: potently inhibits the cleavage of PARP, caspase-8, and -3

prodigiosin
potency compared among PG3-Oc, prodigiosin and Obatoclax [5]: same potency
